One may read the solubility as how much of the substance goes into solution per volume. The low end stands for little dissolved substance, the high end for much dissolved substance.

≈ marks a conversion by molar mass, not a printed value. Read-outs that look alike come from different tables or passages of the source.

The values below come from patent US20110060010A1, “SALTS OF 3-(4-AMINO-1-OXO-1,3-DIHYDRO-ISOINDOL-2-YL)PIPERIDINE-2,6-DIONE AND DERIVATIVES THEREOF, OR POLYMORPHS OF SALTS, PROCESS FOR PREPARING SAME AND USE THEREOF” (TIANJIN HEMAY BIO-TECH CO., LTD, priority 2008, published 2011).

The conditions of data set [1]: 15° C.
Method: (§1) The sample in each example was scanned with UV spectroscopy in the wavelength range of 190-900 nm. The maximum absorbance was set to 2. All the samples to be determined have the same absorption peak at 304 nm. Although there are other absorption peaks in the range of 205-190 nm, the peak shapes are slightly different and the maximum absorption wavelengths thereof are different. Therefore, the fixed wavelength was determined to be 304 nm in the concentration versus absorbance determination.
(§2) Therefore, this compound was chosen to plot the concentration versus absorbance standard curve.
(§3) To a 100 mL volumetric flask were added the sample in Example 7 (279.26 mg) and distilled water. The volume was determined at 100 ml with distilled water. The concentration of the solution is 2.793 mg/mL. To a 50 mL volumetric flask was added 1 mL, 2 mL, 3 mL and 5 mL of the above solution, respectively. The volume was determined at 50 ml with distilled water. The concentrations of these solutions are 0.056 mg/mL, 0.112 mg/mL, 0.167 mg/mL and 0.279 mg/mL, respectively.
(§4) A small amount of the sample was used to prepare a 5 mL saturated solution. The solution was kept in a constant temperature water bath for 1 hour at 25° C. The supernatant was sampled and diluted to appropriate times according to the range of the standard curve. The concentration was determined by ultraviolet spectrophotometry, and the determined reading was multiplied by the dilution times to obtain the solubility of the sample to be determined.
Data set [2] can be described thus: physchem.
Method: as §1, §2, §3, §4
A short description of data set [3]: Stability of aqueous solution at room temperature. It is filed as physicochemical. The following applies: 17 mg dissolved in 10 mL of deionized water, kept at room temperature for 12 hours. On the procedure: 17 mg of 3-(4-amino-1-oxo-1,3-dihydro-isoindol-2-yl)piperidine-2,6-dione bisulfate tetrahydrate (equivalent to 10 mg of 3-(4-amino-1-oxo-1,3-dihydro-isoindol-2-yl)piperidine-2,6-dione) was dissolved in 10 mL of deionized water and kept at room temperature for 12 hours. The content is higher than 98% of labeled amount.

Where [4] appears, read: water, 15 °C, thermodynamic from solid.

As to `Nc1cccc2c1CN(C1CCC(=O)NC1=O)C2=O.O=S(=O)(O)c1cccc2ccccc12` (stereo not drawn) [Example 4], in data set [1] (in water), the solubility was 5.60 mg/mL. As for `Cl.Nc1cccc2c1CN(C1CCC(=O)NC1=O)C2=O` (stereo not drawn) [Example 11], the Water-solubility in data set [1] was 1.23 mg/mL. As for `Nc1cccc2c1CN(C1CCC(=O)NC1=O)C2=O.O.O.O.O.O=S(=O)(O)O` (stereo not drawn) [Example 7, 3-(4-amino-1-oxo-1,3-dihydro-isoindol-2-yl)piperidine-2,6-dione bisulfate tetrahydrate], the solubility at 1 h in data set [2] (15 °C, water, thermodynamic from solid) was above 1000 mg/mL. The compound also came in with a solubility in data set [2] (water, thermodynamic from solid) above 1000 mg/mL. For the same compound, the “content (of labeled amount)” value in data set [3] was “higher than 98 % of labeled amount”.

Regarding `Br.Nc1cccc2c1CN(C1CCC(=O)NC1=O)C2=O` (stereo not drawn) [Example 15], in data set [1], the Water-solubility was 5.5 mg/mL.

For `Nc1cccc2c1CN(C1CCC(=O)NC1=O)C2=O` (stereo not drawn) [Compound (II), in which Y represents H, 3-(4-amino-1-oxo-1,3-dihydro-isoindol-2-yl)piperidine-2,6-dione], the concentration in solution in data set [2] (setting [4]) (solubility) was 0.29 mg/mL (≈ 1120 µM). In turn, `Nc1cccc2c1CN(C1CCC(=O)NC1=O)C2=O` (stereo not drawn) [Example 12, 3-(4-amino-1-oxo-1,3-dihydro-isoindol-2-yl)piperidine-2,6-dione] yielded a solubility at 1 h in data set [2] (setting [4]) of 0.57 mg/mL (≈ 2200 µM). The compound `Nc1cccc2c1CN(C1CCC(=O)NC1=O)C2=O.O=[N+]([O-])O` (stereo not drawn) [Example 10] registered a Water-solubility in data set [1] of 3.68 mg/mL.
